Laboratory results published in patent publication US11254663B2 (BRISTOL-MYERS SQUIBB COMPANY, priority 2019, dated 2022).

The compounds below were run against FXR (Homo sapiens (Human), UniProt Q96RI1) (assay: transient human FXR/Gal4-luciferase reporter assay). Conditions: not given.
Assay type: cell-based
In short: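 Compound exposure ran overnight at 37 °C and activity was measured as luminescence with Steady-Glo reagent. The cells were a HEK293 line stably expressing firefly luciferase under five Gal4 response elements. They were transiently transfected, one night beforehand, with a plasmid encoding Gal4 DNA-binding domain fused to the human FXR ligand-binding domain.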

Chain of FXR (Q96RI1 262-486): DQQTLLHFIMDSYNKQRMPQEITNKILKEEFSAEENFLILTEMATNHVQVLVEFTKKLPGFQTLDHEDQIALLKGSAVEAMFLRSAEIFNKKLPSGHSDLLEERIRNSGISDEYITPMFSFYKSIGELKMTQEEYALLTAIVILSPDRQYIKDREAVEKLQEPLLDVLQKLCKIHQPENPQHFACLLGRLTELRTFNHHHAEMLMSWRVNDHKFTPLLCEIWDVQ

SMILES | EC50
CC(C)(C)c1nc(C23CCC(CN(C(=O)C45CC(F)(C4)C5)c4cncc(-c5ccc(NS(C)(=O)=O)cc5)c4)(CC2)CC3)no1 [Example 481, N-((4-(5-(tert-butyl)-1,2,4-oxadiazol-3-yl)bicyclo[2.2.2]octan-1-yl)methyl)-3-fluoro-N-(5-(4-(methylsulfonamido)phenyl)pyridin-3-yl)bicyclo[1.1.1]pentane-1-carboxamide] | 580 nM
CCOc1ccc(-c2cncc(N(CC34CCC(c5noc(C(C)(C)C)n5)(CC3)CC4)C(=O)C34CC(F)(C3)C4)c2)cc1 [Example 482, N-((4-(5-(tert-butyl)-1,2,4-oxadiazol-3-yl)bicyclo[2.2.2]octan-1-yl)methyl)-N-(5-(4-ethoxyphenyl)pyridin-3-yl)-3-fluorobicyclo[1.1.1]pentane-1-carboxamide] | 322 nM
CC(C)(C)c1nc(C23CCC(CN(C(=O)C45CC(F)(C4)C5)c4cncc(-c5ccc(OC(F)F)cc5)c4)(CC2)CC3)no1 [Example 483, N-((4-(5-(tert-butyl)-1,2,4-oxadiazol-3-yl)bicyclo[2.2.2]octan-1-yl)methyl)-N-(5-(4-(difluoromethoxy)phenyl)pyridin-3-yl)-3-fluorobicyclo[1.1.1]pentane-1-carboxamide] | 255 nM
Cc1nc2ccc(-c3cncc(N(CC45CCC(c6noc(C(C)(C)C)n6)(CC4)CC5)C(=O)C45CC(F)(C4)C5)c3)cc2s1 [Example 484, N-((4-(5-(tert-butyl)-1,2,4-oxadiazol-3-yl)bicyclo[2.2.2]octan-1-yl)methyl)-3-fluoro-N-(5-(2-methylbenzo[d]thiazol-6-yl)pyridin-3-yl)bicyclo[1.1.1]pentane-1-carboxamide] | 344 nM
CS(=O)(=O)Nc1ccc(-c2cccc(N(CC34CCC(c5ccc(C(F)(F)F)cn5)(CC3)CC4)C(=O)C34CC(F)(C3)C4)c2)cc1 [Example 488, 3-fluoro-N-(4′-(methylsulfonamido)-[1,1′-biphenyl]-3-yl)-N-((4-(5-(trifluoromethyl)pyridin-2-yl)bicyclo[2.2.2]octan-1-yl)methyl)bicyclo[1.1.1]pentane-1-carboxamide] | 876 nM
CCOc1ccc(-c2cccc(N(CC34CCC(c5ccc(C(F)(F)F)cn5)(CC3)CC4)C(=O)C34CC(F)(C3)C4)c2)cc1 [Example 489, N-(4′-ethoxy-[1,1′-biphenyl]-3-yl)-3-fluoro-N-((4-(5-(trifluoromethyl)pyridin-2-yl)bicyclo[2.2.2]octan-1-yl)methyl)bicyclo[1.1.1]pentane-1-carboxamide] | 1640 nM

Same assay, conditions: Gal4-hFXR fusion construct, HEK293 reporter cells; response relative to 8 μM GW-4064

EC50 | SMILES
41 nM | CC(C)(C)c1nc(C23CCC(CN(C(=O)C45CC(F)(C4)C5)c4cncc(-c5ncc(OC(F)F)cn5)c4)(CC2)CC3)no1 [Example 485, N-((4-(5-(tert-butyl)-1,2,4-oxadiazol-3-yl)bicyclo[2.2.2]octan-1-yl)methyl)-N-(5-(5-(difluoromethoxy)pyrimidin-2-yl)pyridin-3-yl)-3-fluorobicyclo[1.1.1]pentane-1-carboxamide]
89 nM | CC(C)(C)c1nc(C23CCC(CN(C(=O)C45CC(F)(C4)C5)c4cncc(-c5ccc(OC(F)F)cn5)c4)(CC2)CC3)no1 [Example 486, N-((4-(5-(tert-butyl)-1,2,4-oxadiazol-3-yl)bicyclo[2.2.2]octan-1-yl)methyl)-N-(5-(difluoromethoxy)-[2,3′-bipyridin]-5′-yl)-3-fluorobicyclo[1.1.1]pentane-1-carboxamide]
418 nM | CCOc1ncc(-c2cccc(N(CC34CCC(c5ccc(C(F)(F)F)cn5)(CC3)CC4)C(=O)C34CC(F)(C3)C4)c2)cn1 [Example 487, N-(3-(2-ethoxypyrimidin-5-yl)phenyl)-3-fluoro-N-((4-(5-(trifluoromethyl)pyridin-2-yl)bicyclo[2.2.2]octan-1-yl)methyl)bicyclo[1.1.1]pentane-1-carboxamide]
